From PMC4608580, “Synthesis and Evaluation of Biological Activity of Antimicrobial – Pro-Proliferative Peptide Conjugates” (PLoS ONE, 2015)
≈ marks a conversion by molar mass, not a printed value. Residues, ends and D or L forms follow the SMILES beside them.

Columns and labels:
B. cereus = assay type: cell-based; conditions: broth microdilution, Mueller-Hinton broth, approximately 10^5 CFU/mL, 37°C, 24 h, absorbance 590 nm, at least triplicate
Method: (§1) Luria-Bertani broth (LB) and Sabouraud Dextrose broth (SB) (Biocorp, Poland) were used for cultivation of bacteria and fungi strains, respectively. Antimicrobial activity of peptides was analyzed through determination of MIC (minimal inhibitory concentration) parameter according to the standard microdilution technique performed on 96-well plates. Mueller-Hinton broth (MHB) was used as the working medium for all bacterial strains, while in case of fungi it was additionally supplemented with 2% glucose.
(§2) Briefly, inoculum was prepared from freshly grown cultures of microorganisms being at their exponential phase of growth. Each well of 96-well plates containing 100 μL of serially diluted peptides in PBS (phosphate buffer saline) at concentration ranging from 2 to 250 μg/mL were inoculated with 100 μL of approximately 10^5 CFU/mL of bacterial suspension or about 2.5 x 10^3 CFU/mL of fungi suspended in a double concentrated Mueller-Hinton broth (supplemented with 2% glucose for Candida spps.). Then plates were incubated overnight at 37°C and absorbance was read at 590 nm after 24 h. Cultures without peptide were treated as positive control, while uninoculated Mueller-Hinton broth was defined as negative control. All measurements were run at least in triplicate.
(§3) All peptides were screened against the wide range of microorganisms, including Gram-negative, Gram-positive bacteria and fungi from Candida species (Table 2). Broth microdilution method for MIC determination was used as a standard procedure. All assays were performed on liquid Mueller-Hinton broth, which was additionally supplemented with 2% glucose when fungicidal activity towards Candida spps. was analyzed.

B. subtilis = assay type: cell-based; conditions: broth microdilution, Mueller-Hinton broth, approximately 10^5 CFU/mL, 37°C, 24 h, absorbance 590 nm, at least triplicate
Method: as §1, §2, §3

[1] = system: Candida albicans (CCM 8186); assay type: cell-based; conditions: broth microdilution, Mueller-Hinton broth + 2% glucose, about 2.5 x 10^3 CFU/mL, 37°C, 24 h, absorbance 590 nm, peptide 2 to 250 μg/mL, at least triplicate
Source text: (§4) Escherichia coli (PCM 2057), Staphylococcus aureus (PCM 2054), Staphylococcus epidermidis (PCM 2118), Pseudomonas aeruginosa (PCM 499) were obtained from Polish Collection of Microorganisms. Fungi strains Candida albicans (CCM 8186), Candida glabrata (CCM 8270), Candida parapsilosis (CCM 8260), Candida krusei (CCM 8271), Candida tropicalis (CCM 8264) were acquired from Czech Collection of Microorganisms.
as §1, §2, §3

[2] = system: Candida glabrata (CCM 8270); assay type: cell-based; conditions: broth microdilution, Mueller-Hinton broth + 2% glucose, about 2.5 x 10^3 CFU/mL, 37°C, 24 h, absorbance 590 nm, at least triplicate
Source text: as §4, §1, §2, §3

[3] = system: Candida krusei (CCM 8271); assay type: cell-based; conditions: broth microdilution, Mueller-Hinton broth + 2% glucose, about 2.5 x 10^3 CFU/mL, 37°C, 24 h, absorbance 590 nm, at least triplicate
Source text: as §4, §1, §2, §3

[4] = system: Candida parapsilosis (CCM 8260); assay type: cell-based; conditions: broth microdilution, Mueller-Hinton broth + 2% glucose, about 2.5 x 10^3 CFU/mL, 37°C, 24 h, absorbance 590 nm, at least triplicate
Source text: as §4, §1, §2, §3

[5] = system: Candida tropicalis (CCM 8264); assay type: cell-based; conditions: broth microdilution, Mueller-Hinton broth + 2% glucose, about 2.5 x 10^3 CFU/mL, 37°C, 24 h, absorbance 590 nm, at least triplicate
Source text: as §4, §1, §2, §3

[6] = system: Escherichia coli (PCM 2057); assay type: cell-based; conditions: broth microdilution, Mueller-Hinton broth, approximately 10^5 CFU/mL, 37°C, 24 h, absorbance 590 nm, at least triplicate
Source text: as §4, §1, §2, §3

[7] = system: Pseudomonas aeruginosa (PCM 499); assay type: cell-based; conditions: broth microdilution, Mueller-Hinton broth, approximately 10^5 CFU/mL, 37°C, 24 h, absorbance 590 nm, at least triplicate
Source text: as §4, §1, §2, §3

[8] = system: Staphylococcus aureus (PCM 2054); assay type: cell-based; conditions: broth microdilution, Mueller-Hinton broth, approximately 10^5 CFU/mL, 37°C, 24 h, absorbance 590 nm, at least triplicate
Source text: as §4, §1, §2, §3

[9] = system: Staphylococcus epidermidis (PCM 2118); assay type: cell-based; conditions: broth microdilution, Mueller-Hinton broth, approximately 10^5 CFU/mL, 37°C, 24 h, absorbance 590 nm, at least triplicate
Source text: as §4, §1, §2, §3

HaCaT keratinocytes = assay: Cell migration assay (in vitro scratch test); assay type: cell-based, human; conditions: 25 μg/mL, 24 h
Method: Fibroblasts and keratinocytes were seeded (5x10^5 cells/well) in 6-well plates. When desired monolayer confluence was reached, cells were starved for 24 hours in serum-free DMEM. The monolayer was scratched then with 200μL-pipette tip. The floating cells and cell debris were removed by double washing in PBS, further replaced with a fresh serum-free medium. Wounded monolayers were incubated for the next 24 h in the presence of tested peptides used at concentration of 25 μg/mL and 5 μg/mL of Mitomycin C (Sigma Aldrich) to prevent proliferation. At the end of the experiment medium was removed and the cells were fixed with 3.7% PFA for 5 min, stained for the next 30 min with 0.05% crystal violet solution, washed several times with distilled water and the plates were left inverted for a couple of minutes to drain. The wounded areas were then photographed by means of Zeiss Observer D1 microscope equipped with camera AxioCam and analyzed with AxioVision software (Carl Zeiss, Germany). Migration activity of the cells treated with the tested peptides were expressed as the percentage of the wounded area with respect to the control probe (cell cultures without any of the peptide), assumed as 100%.
An in vitro scratch test was performed to investigate the effect of the analyzed compounds on keratinocytes and fibroblasts migration. Evaluation was based on the efficiency of the invasion of the monolayer cells to the prewounded area within 24 h after stimulation with the appropriate compound added at concetration of 25μg/mL.
Fig 2 Effect of the peptides on HaCaT keratinocytes and fibroblasts cell migration in the in vitro scratch test. HaCaT cells and fibroblasts were grown in 6-well plates until the 100% confluence was reached, then cells were starved for the next 12 hours in DMEM without 10% FCS and scratched once vertically with a 200μL pipette tip. After being washed two times with sterile PBS, a fresh portion of DMEM medium was added and cells were treated with the tested peptides applied at their optimal doses (25 μg/mL). Migration was analyzed after 24 hours by means of Zeiss Observer D1 microscope, wounding areas were analyzed with AxioVision software and expressed as the percentage of the wound width in comparison to the control sample (cells incubated in DMEM without FCS). Control+ FCS corresponds to the sample with cells incubated in the medium containing 10% FCS and was treated as the additional positive control. Data represent the mean ± SD of three independent experiments. *P < 0.05, **P < 0.01, ***P < 0.001 vs. control.

[10] = system: human primary dermal fibroblasts; assay: Cell migration assay (in vitro scratch test); assay type: cell-based; conditions: 25 μg/mL, 24 h, serum-free DMEM, Mitomycin C 5 μg/mL, vs. control without peptide, three independent experiments
Method: Biopsies of healthy human skin were obtained aseptically from three donors (47–69 years old) undergoing circumcision after obtaining their written informed consent. All the procedures were approved by the Ethics Committee of Medical University of Gdansk (NKEBN/483/2011. Issued: 2011-12-19). The samples were washed several times with sterile PBS (Sigma-Aldrich, Germany) containing antibiotic (200 U/mL penicillin and 200 μg/mL streptomycin), after which, the subcutaneous tissue was cut off with a sharp blade. The resulting sheets were cut into small fragments, washed two times with sterile PBS and treated with 6 U/mL dispase II (BD, USA) overnight at 4°C to separate epidermis and dermis. The dermis was then digested with 1.0 mg/mL collagenase type I (from Clostridium histolyticum Sigma-Aldrich, Germany) for 2 hours at 37°C to isolate fibroblasts. Cells were used between the 2nd and 4th passage in all experiments.
Fibroblasts and keratinocytes were seeded (5x10^5 cells/well) in 6-well plates. When desired monolayer confluence was reached, cells were starved for 24 hours in serum-free DMEM. The monolayer was scratched then with 200μL-pipette tip. […] The wounded areas were then photographed by means of Zeiss Observer D1 microscope equipped with camera AxioCam and analyzed with AxioVision software (Carl Zeiss, Germany). Migration activity of the cells treated with the tested peptides were expressed as the percentage of the wounded area with respect to the control probe (cell cultures without any of the peptide), assumed as 100%.
An in vitro scratch test was performed to investigate the effect of the analyzed compounds on keratinocytes and fibroblasts migration. […]
Fig 2 Effect of the peptides on HaCaT keratinocytes and fibroblasts cell migration in the in vitro scratch test. […] Migration was analyzed after 24 hours by means of Zeiss Observer D1 microscope, wounding areas were analyzed with AxioVision software and expressed as the percentage of the wound width in comparison to the control sample (cells incubated in DMEM without FCS). […]

[11] = Circular dichroism, alpha-helical content; assay type: physicochemical; conditions: CD, mean residue ellipticity at 222 nm (Eq 1), peptide 0.4 mg/ml in 30 mM SDS, room temperature
Method: Circullar dichroism spectra of analyzed compounds were recorded on a Jasco J-815 spectropolarimeter using a quartz cell of 1 mm path length between 195–260 nm at room temperature. Peptides at concentration of 0.4 mg/ml were dissolved in water or 30 mM SDS solution. SDS micelle system was used as the simplified model of negatively charged lipid membrane. On the basis of the obtained results the alpha-helical content was determined from the mean residue ellipticities at 222 nm according to Eq 1: %Helix=([θ]obs/([θ]helixx(1−2.57/l))x100, (1) where [θ] obs is the experimentally observed mean-residue ellipticity at 222 nm, [θ]helix is the theoretical ellipticity of peptide of infinite length with a 100% helix population, taken as -39 500 deg·cm^2/dmol, and l is the number of peptide bonds.
Circular dichroism method was applied to obtain a basic information about the secondary structure of the synthesized compounds (with the exception of CAR, CAR3, DAL, CTEN2) in two chemical environments, water and 30 mM SDS. As expected, all the tested compounds in water adopted a random-coil structure, while in the presence of 30 mM SDS most of them formed α-helices with characteristic negative minima around 208 and 220 nm. […] The examples of CD spectra for selected peptides could be seen in supporting information (Figure A in S1 File). On the basis of the experimentally obtained values of the mean residue ellipticities of peptides at 222 nm their alpha-helical content was calculated according to the Eq 1 (Table 1).

CC(C)C[C@H](NC(=O)[C@H](Cc1ccccc1)NC(=O)CNC(=O)[C@@H](C)NC(=O)[C@@H](N)Cc1ccc(O)cc1)C(=O)N[C@@H](CCCNC(=N)N)C(=O)NCCOCCOCC(=O)N[C@@H](CCCCN)C(=O)N[C@@H](CCCCN)C(=O)N[C@H](C(=O)N[C@H](C(=O)N[C@@H](Cc1ccccc1)C(=O)N[C@@H](Cc1c[nH]c2ccccc12)C(=O)N[C@H](C(=O)N[C@@H](CCCCN)C(=O)N[C@@H](Cc1ccccc1)C(=O)N[C@@H](CCCCN)C(N)=O)C(C)C)C(C)C)C(C)C [DAL-PEG-KSLW] (HELM PEPTIDE1{Y.[dA].G.F.L.R.[O=C(COCCOCCN[*:1])[*:2]].K.K.V.V.F.W.V.K.F.K.[am]}$$$$V2.0; N-terminus assumed)
MIC B. cereus (B. cereus): 125 µg/mL (≈ 57.9 µM)
MIC B. subtilis (B. subtilis): 15.6 µg/mL (≈ 7.22 µM)
MIC C. albicans [1]: 31.3 µg/mL
MIC C.glabrata [2]: 125 µg/mL
MIC C.krusei [3]: 31.3 µg/mL
MIC C. parapsilosis [4]: 62.5 µg/mL
MIC C.tropicalis [5]: 7.8 µg/mL
MIC E.coli [6]: 7.8 µg/mL (≈ 3.61 µM)
MIC P. aeruginosa [7]: 62.5 µg/mL (≈ 28.9 µM)
MIC S.aureus [8]: 62.5 µg/mL (≈ 28.9 µM)
MIC S. epidermidis [9]: 3.9 µg/mL (≈ 1.8 µM)
Effect on keratinocyte migration (scratch test), in words (HaCaT keratinocytes; serum-free DMEM, Mitomycin C 5 μg/mL, vs. control without peptide, three independent experiments): best results
Keratinocyte migration higher than that of the native peptides KSLW and DAL (HaCaT keratinocytes; scratch test): about 15%
Effect on fibroblast migration (scratch test), in words [10]: highest migration rate
α-helicity [11]: 22%
